In BindingDB's records for doi:10.7270/Q2TX3CTT (Broad Institute, 2010):

What follows are molecules tested against Glycogen synthase kinase-3 beta (Homo sapiens, UniProt P49841) (assay: GSK3beta kinase inhibitor potency, dose response, biochemical, luminescence, cell-free homogeneous, retest (AID 434954)).
Sequence of Glycogen synthase kinase-3 beta (P49841 whole entry): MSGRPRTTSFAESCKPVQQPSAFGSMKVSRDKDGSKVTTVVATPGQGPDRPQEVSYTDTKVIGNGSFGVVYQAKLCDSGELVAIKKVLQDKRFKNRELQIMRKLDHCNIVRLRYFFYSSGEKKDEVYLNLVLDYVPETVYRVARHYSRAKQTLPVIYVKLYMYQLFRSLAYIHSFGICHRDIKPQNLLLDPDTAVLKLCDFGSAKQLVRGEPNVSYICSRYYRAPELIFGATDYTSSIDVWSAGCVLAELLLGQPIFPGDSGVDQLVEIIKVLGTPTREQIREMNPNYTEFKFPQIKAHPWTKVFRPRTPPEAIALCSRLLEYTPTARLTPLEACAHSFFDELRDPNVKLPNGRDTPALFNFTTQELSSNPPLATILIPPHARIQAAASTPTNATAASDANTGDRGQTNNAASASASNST
Molecule CCC(C)NCCOCCOc1ccc(Cl)cc1Br (centres undefined) [N-[2-[2-(2-bromo-4-chlorophenoxy)ethoxy]ethyl]-2-butanamine;oxalic acid] has an EC50 greater than 300 µM.
O=C(Cc1sc(N2CCCCC2)nc1O)Nc1cccc(C(F)(F)F)c1 [MLS000570409] showed an EC50 greater than 300 µM.
Molecule O=c1c2[nH]c3ccccc3c2ncn1C1CCCCC1 [SMR000039546] has an EC50 greater than 300 µM.
Molecule COc1cc(C=NNC(=O)COc2ccccc2[N+](=O)[O-])ccc1OC(=O)c1ccco1 [SMR000204365] has an EC50 greater than 300 µM.
COc1ccc(C(=O)c2coc3ccc(O)c(CN4CCOCC4)c23)cc1 [MLS000115876] was tested, and the EC50 was greater than 300 µM.
Molecule Clc1ccccc1Nc1nc(-c2ccncc2)nc2ccccc12 [MLS001163918] has an EC50 greater than 300 µM.
With COc1ccc(Cl)cc1-c1nc(N)nc(N(C)C)n1 [MLS000698391] the EC50 was greater than 300 µM.
Cc1ccc(-c2n[nH]c(=S)n2N=Cc2ccncc2)cc1 [SMR000269897] showed an EC50 of 11.5 µM.
For COc1ccc(-c2nn(-c3ccccc3)cc2C=NNC(=S)NC(C)C)cc1OC [1-[[3-(3,4-dimethoxyphenyl)-1-phenyl-4-pyrazolyl]methylideneamino]-3-propan-2-ylthiourea], the EC50 was greater than 300 µM.
CCOc1ccccc1N1CCN(S(=O)(=O)c2cc(C)ccc2OC)CC1 [MLS000703554] was tested, and the EC50 was greater than 300 µM.
Molecule CSc1nc(C)cc(-n2ccc(=O)[nH]c2=O)n1 [1-[6-methyl-2-(methylthio)-4-pyrimidinyl]pyrimidine-2,4-dione] has an EC50 of 25.8 µM.
CC1(C)CC(=O)C=C(Nc2ccc(F)cc2)C1 [MLS000070279] showed an EC50 greater than 300 µM.
COCCCNc1nc(N)c([N+](=O)[O-])c(Nc2cc(OC)ccc2OC)n1 [N4-(2,5-dimethoxyphenyl)-N2-(3-methoxypropyl)-5-nitro-pyrimidine-2,4,6-triamine] gave an EC50 of 0.742 µM.
COCCn1c(SCC(=O)Nc2cccc(S(N)(=O)=O)c2)nc2ccccc21 [2-[1-(2-methoxyethyl)benzimidazol-2-yl]sulfanyl-N-(3-sulfamoylphenyl)ethanamide] was tested, and the EC50 was greater than 300 µM.
CC(C)=CCc1c(O)cc(O)c2c1O[C@H](c1ccc(O)cc1)CC2=O showed an EC50 greater than 300 µM.
COc1ccc(-c2nn(-c3ccccc3)cc2C=Nn2c(O)csc2=S)cc1 [MLS000558856] was tested, and the EC50 was greater than 300 µM.
In the case of C=CCN=C(NC#N)SC [methyl N-cyano-N'-prop-2-enyl-carbamimidothioate], the EC50 is reported as greater than 300 µM.
In the case of O=C(CN1C(=O)CCC1=O)Nc1ccc(Br)cc1 [N-(4-bromophenyl)-2-(2,5-dioxo-1-pyrrolidinyl)acetamide], the EC50 is reported as greater than 300 µM.
COCCCNC(=O)c1cccn2c(=O)c3cc4ccccc4cc3nc12 [N-(3-methoxypropyl)-12-oxidanylidene-12H-benzo[g]pyrido[2,1-b]quinazoline-4-carboxamide] gave an EC50 of 0.531 µM.
For COc1ccc2nc3c(cc2c1)c(NC(=O)c1cccs1)nn3CC(C)C [MLS000041975], the EC50 was 0.0951 µM.
CC(C)N(Cc1nnc(-c2ccc(Cl)cc2)o1)C(=O)C1=COCCO1 showed an EC50 greater than 300 µM.
Work on CC(C)c1ccc(NC2=CC(=O)CC(C)(C)C2)cc1 [SMR000558851] yielded an EC50 greater than 300 µM.
In the case of O=[N+]([O-])c1ccc2ccn(C3OCC(O)C(O)C3O)c2c1 (centres undefined) [SMR000283162], the EC50 is reported as greater than 300 µM.
Work on Cc1cc(CN(C)C(=O)c2ccc(OC3CCN(CCc4ccccc4)CC3)cc2)on1 [MLS001100796] yielded an EC50 greater than 300 µM.
In the case of CCOC(=O)c1c(C)oc2c(CC(=O)c3ccccc3)c(Cl)c(O)c(O)c12 [ethyl 6-chloro-4,5-dihydroxy-2-methyl-7-phenacyl-1-benzofuran-3-carboxylate], the EC50 is reported as greater than 300 µM.
For O=S(=O)(Nc1cccnc1)c1ccc(C2CCCCC2)cc1 [MLS000075296], the EC50 was greater than 300 µM.
Work on CCOC(=O)c1nnn(-c2nonc2N)c1CN1CCc2ccccc2C1 [ethyl 1-(4-amino-1,2,5-oxadiazol-3-yl)-5-(3,4-dihydro-1H-isoquinolin-2-ylmethyl)triazole-4-carboxylate] yielded an EC50 of 71.5 µM.
Molecule O=C(NC1CCCCC1)C(c1ccc(F)cc1)N(Cc1ccccc1)C(=O)CN1C(=O)c2ccccc2S1(=O)=O (centres undefined) [N-cyclohexyl-2-(4-fluorophenyl)-2-[[1-oxo-2-(1,1,3-trioxo-1,2-benzothiazol-2-yl)ethyl]-(phenylmethyl)amino]acetamide] has an EC50 greater than 300 µM.
CC1=Nc2ncnn2C(c2c[nH]c3ccccc23)C1C(=O)OC(C)C (centres undefined) was tested, and the EC50 was 1.81 µM.
For CN(C)S(=O)(=O)c1cc(NC(=O)COC(=O)Cc2ccc(Br)cc2)ccc1Cl [SMR000243172], the EC50 was greater than 300 µM.
Cc1ccnc(NC(=O)c2ccc([N+](=O)[O-])s2)c1 [N-(4-methylpyridin-2-yl)-5-nitro-thiophene-2-carboxamide] showed an EC50 greater than 300 µM.
COc1cccc(C2C3=C(CC(C)(C)CC3=O)N=C(C)C2C#N)c1 (centres undefined) [4-(3-methoxyphenyl)-2,7,7-trimethyl-5-oxo-1,4,5,6,7,8-hexahydro-3-quinolinecarbonitrile] gave an EC50 greater than 300 µM.
In the case of COc1ccc(CCN(C)C(=O)c2ccc(S(=O)(=O)Nc3ccccc3C)cc2)cc1OC, the EC50 is reported as greater than 300 µM.
For CC(=NNC(=O)c1nnn(-c2nonc2N)c1CN1CCC(C)CC1)c1cccc(Br)c1 [MLS001075097], the EC50 was 25.4 µM.
CC1(C)CC(=O)C2C(=NC3=C(C(=O)c4ccccc43)C2c2ccc(O)cc2)C1 (centres undefined) [10-(4-hydroxyphenyl)-7,7-dimethyl-5,6,8,10-tetrahydroindeno[1,2-b]quinoline-9,11-dione] was tested, and the EC50 was greater than 300 µM.
Molecule Cc1ccc(NS(=O)(=O)c2cccc(C(=O)NN=Cc3c(C)nn(-c4ccccc4)c3N3CCCC3)c2)c(C)c1 [MLS000394744] has an EC50 greater than 300 µM.
For O=C(CSc1n[nH]c(=O)[nH]c1=O)c1ccc(Cl)cc1Cl [6-[2-(2,4-dichlorophenyl)-2-oxoethyl]sulfanyl-2H-1,2,4-triazine-3,5-dione], the EC50 was greater than 300 µM.
Cc1c(Cc2ccccc2)c(=O)oc2cc(O)cc(O)c12 [SMR000300454] showed an EC50 of 15.8 µM.
Cc1nnc(SCC(=O)N2CCC(C(=O)Nc3nccs3)CC2)n1Cc1ccccc1 gave an EC50 of 36.6 µM.
Work on Cc1ccc(NC(=S)NC2CC3CCC(C2)N3Cc2ccco2)c(C)c1 (centres undefined) [1-(2,4-dimethylphenyl)-3-[8-(2-furanylmethyl)-8-azabicyclo[3.2.1]octan-3-yl]thiourea] yielded an EC50 greater than 300 µM.
Cc1ccc(C)c(CSc2nnc(-c3cccnc3)o2)c1 [MLS000074430] was tested, and the EC50 was greater than 300 µM.
In the case of NC(=O)C1CCN(C(=O)c2ccc(Oc3cc(Cl)cc(Cl)c3)o2)CC1 [1-[5-[3,5-bis(chloranyl)phenoxy]furan-2-yl]carbonylpiperidine-4-carboxamide], the EC50 is reported as greater than 300 µM.
For COc1ccc2nc(C)cc(Nc3ccc(N4CCN(C)CC4)cc3)c2c1, the EC50 was greater than 300 µM.
Nc1nonc1-n1nnc(C(=O)NN=Cc2ccc(OCc3ccccc3F)cc2)c1CN1CCCCC1 [SMR000646487] was tested, and the EC50 was greater than 300 µM.
With CNc1nc(N)c([N+](=O)[O-])c(NCCO)n1 the EC50 was 67.1 µM.
For COc1ccc(NC(=O)c2ccc(-c3ccc(OC)cc3)s2)cc1 [SMR000335035], the EC50 was greater than 300 µM.
With COCCn1c(SCC(=O)NC(=O)NC(C)C)nc2ccccc21 [2-[1-(2-methoxyethyl)benzimidazol-2-yl]sulfanyl-N-(propan-2-ylcarbamoyl)ethanamide] the EC50 was greater than 300 µM.
N#Cc1ccccc1CSc1nnc(-c2ccncc2)o1 [2-[(5-pyridin-4-yl-1,3,4-oxadiazol-2-yl)sulfanylmethyl]benzenecarbonitrile] showed an EC50 of 20.7 µM.
In the case of NC(=O)c1ncn([C@@H]2O[C@H](CO)[C@@H](O)[C@H]2O)n1 [Tribavirin], the EC50 is reported as greater than 300 µM.
CCc1n[nH]c(=S)n1N=CC(C)=Cc1ccccc1 [MLS001164489] showed an EC50 greater than 300 µM.
Molecule COc1ccc(C2CC(=O)N3CN(c4ccc(C)c(Cl)c4)CSC3=C2C#N)cc1 (centres undefined) has an EC50 greater than 300 µM.
Cc1ccccc1-c1nc(CN2CCC(C(=O)N3CCN(c4ccccn4)CC3)CC2)c(C)o1 [[1-[[5-methyl-2-(2-methylphenyl)-4-oxazolyl]methyl]-4-piperidinyl]-[4-(2-pyridinyl)-1-piperazinyl]methanone] was tested, and the EC50 was greater than 300 µM.
CN(CC(=O)OCC(=O)Nc1ccccc1)S(=O)(=O)c1ccc(Cl)cc1 [(2-anilino-2-oxoethyl) 2-[(4-chlorophenyl)sulfonyl-methylamino]acetate] gave an EC50 greater than 300 µM.
With CCCc1c(NC(=O)Nc2ccc(F)cc2)cnn1-c1ccccc1 [1-(4-fluorophenyl)-3-(1-phenyl-5-propylpyrazol-4-yl)urea] the EC50 was greater than 300 µM.
COc1cccc2c1cc1c(=O)n(CC(=O)NCCCN3CCN(C)CC3)nc(C)n12 was tested, and the EC50 was greater than 300 µM.
Nc1nc(Nc2ccc(Cl)cc2)nc(NCCO)c1[N+](=O)[O-] [2-[[6-amino-2-(4-chloroanilino)-5-nitropyrimidin-4-yl]amino]ethanol] gave an EC50 of 1.7 µM.
With CCOCCCn1c(=NC(C)=O)c(C#N)cc2c(=O)n3cccc(C)c3nc21 [SMR000436200] the EC50 was greater than 300 µM.
COc1cc(CN=O)ccc1Oc1ccc([N+](=O)[O-])cc1[N+](=O)[O-] [N-[[4-(2,4-dinitrophenoxy)-3-methoxyphenyl]methylidene]hydroxylamine] was tested, and the EC50 was greater than 300 µM.
Molecule Cc1oc2c(CN(C)C)c(O)ccc2c(=O)c1-c1cscn1 has an EC50 greater than 300 µM.
O=C(Oc1ccc(F)c(F)c1)c1ccc2c(=O)n3c(nc2c1)CCC3 [9-oxo-2,3-dihydro-1H-pyrrolo[2,1-b]quinazoline-6-carboxylic acid (3,4-difluorophenyl) ester] gave an EC50 greater than 300 µM.
In the case of O=C1Nc2ccccc2C1C=Nc1ccc2c(c1)OCO2 (centres undefined) [(3Z)-3-[(1,3-benzodioxol-5-ylamino)methylidene]-1H-indol-2-one], the EC50 is reported as 11.4 µM.
With CCc1ccccc1NC(=O)CSc1nnc(-c2ccncc2)o1 [SMR000324383] the EC50 was greater than 300 µM.
For Cc1cc(NC(=O)CSc2nc(O)c(C#N)c(-c3ccccc3)n2)no1 [2-[(5-cyano-4-oxidanylidene-6-phenyl-1H-pyrimidin-2-yl)sulfanyl]-N-(5-methyl-1,2-oxazol-3-yl)ethanamide], the EC50 was greater than 300 µM.
For COC(=O)C1=C(C)N(CCCC(=O)O)C(=O)NC1c1ccc([N+](=O)[O-])cc1 (centres undefined) [MLS000562939], the EC50 was greater than 300 µM.
With CON=C(CNC(=O)c1ccc(Cl)cc1Cl)c1ccc(Cl)cc1 [SMR000179199] the EC50 was greater than 300 µM.
Cc1ccsc1C1NC(=O)c2c(sc3c2CCCC3)N1 (centres undefined) [MLS000027648] showed an EC50 greater than 300 µM.
Molecule Clc1ccc(CN=Nc2ncnc3nc[nH]c23)cc1 [MLS000419189] has an EC50 of 20.4 µM.
CC1CCCCN1c1ncnc(N)c1[N+](=O)[O-] (centres undefined) [6-(2-methylpiperidin-1-yl)-5-nitro-pyrimidin-4-amine] was tested, and the EC50 was 8.18 µM.
COC(=O)CSc1ccc2nnc(-c3ccc(F)cc3)n2n1 [methyl 2-[[3-(4-fluorophenyl)-[1,2,4]triazolo[4,3-b]pyridazin-6-yl]sulfanyl]ethanoate] was tested, and the EC50 was 9.3 µM.
